Reference: publication PMC8052950 (Journal of medicinal chemistry, 2021)
Where a name gives a salt, the structure may show the parent alone.

What was measured:
[1] = target: WVpro (West Nile virus protease) (West Nile virus, UniProt Q9Q6P4); test: WVpro enzyme inhibition assay; format: biochemical
[2] = target: DV2pro (protease of dengue serotype-2) (Dengue virus type 2, UniProt P29990); test: DV2pro enzyme inhibition assay; format: biochemical, dengue virus serotype-2; conditions: read-out: IC50 against DV2pro; standard errors <30%
[3] = test system: ZIKV-FLR; test: Cellular anti-ZIKV activity in U87 cells; format: cell-based, Zika virus; conditions: for EC68 against ZIKV: in cells, values printed in nM in the text
[4] = test system: 5 selected human proteases; conditions: at 10 μM; cited from earlier work
[5] = test system: ZIKV; conditions: cited from earlier work
[6] = test system: ZIKV strain HN16; conditions: comparable activities; cited from earlier work
[7] = test system: dengue virus (serotype-2, strain K0049); conditions: comparable activities; cited from earlier work

WVpro (West Nile virus protease), sequence (Q9Q6P4 1424-1470): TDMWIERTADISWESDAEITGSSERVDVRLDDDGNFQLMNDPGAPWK
WVpro (West Nile virus protease), sequence (Q9Q6P4 1506-1675): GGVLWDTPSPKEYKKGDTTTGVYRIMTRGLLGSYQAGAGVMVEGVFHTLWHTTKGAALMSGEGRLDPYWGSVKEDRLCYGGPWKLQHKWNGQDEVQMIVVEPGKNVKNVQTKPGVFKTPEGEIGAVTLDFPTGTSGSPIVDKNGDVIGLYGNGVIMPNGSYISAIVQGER
DV2pro (protease of dengue serotype-2), sequence (P29990 1476-1645): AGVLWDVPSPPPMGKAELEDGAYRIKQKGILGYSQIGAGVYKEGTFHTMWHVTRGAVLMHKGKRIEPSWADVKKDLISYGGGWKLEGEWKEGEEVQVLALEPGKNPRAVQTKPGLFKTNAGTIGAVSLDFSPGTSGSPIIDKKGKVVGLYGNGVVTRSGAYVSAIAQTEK
DV2pro (protease of dengue serotype-2), sequence (P29990 1394-1440): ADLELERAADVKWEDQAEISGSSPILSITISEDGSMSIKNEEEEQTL

For `Brc1ccc(-c2ncc(OCC3CCNCC3)nc2-c2ccc(Br)cc2)cc1` [Compound 1, 2,3-bis(4-Bromophenyl)-5-(piperidin-4-ylmethoxy)pyrazine hydrochloride], the IC50 [1] was over 50 µM.
In the case of `NCc1ccc(-c2cc(CNCC3CCNCC3)sc2-c2ccc(CN)cc2)cc1` [Compound 20, ((5-(((Piperidin-4-ylmethyl)amino)methyl)thiophene-2,3-diyl)bis(4,1-phenylene))dimethanamine Hydrochloride], the IC50 [2] is reported as over 50 µM and the IC50 [1] is reported as over 50 µM.
With `NCc1ccc(-c2ncc(OCC3CCNCC3)nc2-c2ccc(O)cc2)cc1` [Compound 50, 4-(3-(4-(Aminomethyl)phenyl)-6-(piperidin-4-ylmethoxy)pyrazin-2-yl)phenol hydrochloride] the “Inhibition of ZIKV replication” value ([3]; at 10 μM) was “did not inhibit ZIKV replication”.
In the case of `NCc1ccc(-c2ncc(OCC3CCNCC3)nc2-c2ccc(C3CCOCC3)cc2)cc1` [Compound 103, (4-(5-(Piperidin-4-ylmethoxy)-3-(4-(tetraHydro-2H-pyran-4-yl)phenyl)pyrazin-2-yl)phenyl)methanamine hydrochloride], the “EC68 against ZIKV” value [3] is reported as 300 to 600 nM.
For `NCc1ccc(-c2ncc(OCC3CCNCC3)nc2-c2ccc(-c3cn[nH]c3)cc2)cc1` [Compound 46], the IC50 [1] was 0.12 µM.
In the case of `NCc1ccc(-c2ncc(OCC3CCNCC3)nc2-c2ccc(-c3ccoc3)cc2)cc1` [Compound 47, (4-(3-(4-(Furan-3-yl)phenyl)-5-(piperidin-4-ylmethoxy)pyrazin-2-yl)phenyl)methanamine hydrochloride], the EC68 ([3]; Zika virus, U-87 MG, 48 h, read-out: ZIKV-FLR EC68) is listed as 0.3 to 0.6 µM, the “EC68 against ZIKV” value [3] is listed as 300 to 600 nM and the “Inhibition of 5 selected human proteases” value [4] is listed as “did not inhibit”. The “In vivo antiviral activity” value ([5]; mouse model of ZIKV infection) was “strong in vivo antiviral activity”, the “Survival of the experimental mice” value ([5]; mouse, 30 mg/kg for 3 days) was “significantly prolonged survivals” and the “Inhibition of replication of ZIKV strain HN16” value [6] was “potently inhibit replication”. For the same compound, the “Inhibition of replication of dengue virus (serotype-2, strain K0049)” value [7] was “potently inhibit replication”.
`NCc1ccc(-c2ncc(OCC3CCNCC3)nc2-c2ccc(-c3ccncc3)cc2)cc1` [Compound 45, (4-(5-(Piperidin-4-ylmethoxy)-3-(4-(pyridin-4-yl)phenyl)pyrazin-2-yl)phenyl)methanamine hydrochloride] gave an IC50 [1] of over 50 µM.
In the case of `NCc1ccc(-c2ncc(OCC3CCNCC3)nc2-c2ccc(Oc3ccccc3)cc2)cc1` [Compound 44, (4-(3-(4-Phenoxyphenyl)-5-(piperidin-4-ylmethoxy)pyrazin-2-yl)phenyl)methanamine hydrochloride], the IC50 [1] is reported as over 50 µM.
